Legend:
neurocytes = test: Cell survival of neurocytes after serum removal, with or without 0.1% 2-mercaptoethanol, 72 hours; type: cell-based, rat
Source text: A rat pregnant for […] was cervically dislocated to sacrifice the experimental animal and the abdomen of the experimental animal was excised in an U-shape to expose the uterus in which a fetus was located. Thereafter, the fetus was taken out from the uterus and then inserted into a fetus washing medium and then washed three times. Only the head of the fetus was cut and then inserted into the fetus washing medium to wash the head three times and then the cranium of the fetus was broken to separate the brain therefrom. A knife was used to cut the cortex of the brain and tissues of the cortex were thoroughly chopped, which were then collected in the already prepared fetus washing medium. After centrifuging at 400 g for 4 minutes, a supernatant was removed therefrom and then 0.025% of trypsin and 10 ml of DNase1 were added to the pellets to break the pellets. The mixture was stored in an incubator for 15 minutes.
Thereafter, 15 ml of a cell culture medium was added thereto again, centrifuged at 400 g for 4 minutes, a supernatant was removed therefrom to obtain pellets, which were washed twice with 6 ml of a washing medium (including DNase 1), and then centrifuged again at 400 g for 4 minutes. After the centrifugation, the supernatant solution was removed again to obtain pellets, 10 ml of the culture medium was added to the pellets and a mixture obtained therefrom was mixed with 10 ul of trypan blue to count the cells by using a hemocytometer. In a 24-well plate, 500 ul of the cells were seeded in each well and then cultured for 48 hours. Thereafter, the culture medium was removed from the well plate for stabilization, a new cell culture medium and 5 uM Ara-c (cytosine arabinoside, sigma, C1768) were added thereto, cultured for […], the culture medium was removed again after 24 hours, a new culture medium was added thereto, and then cultured in an incubator having conditions of […], 5% CO2, and a temperature of 37° C. for the next experiment.
In a 96-well plate, cells were inoculated at a density of 2×10^4 cells/well and in an amount of 200 ul for each well. In this regard, cell confluence was set to be about 70% to about 80%. After 24 hours, when the cells have stabilized, a 26 or 28 gauge needle was used to remove a pre-existing medium from the wells. […]

retinal neurocytes = test: Cell survival of retinal neurocytes, MTT assay, 72 hours, hypoxic conditions; type: cell-based, rat; settings: for cell survival rate: normal culture = 100%
Method: Eyes of a […] rat were removed and retina of the eyes were separated and then put into solution 1. Retinal tissues were treated in trypsin at a temperature of 37° C. for 10 minutes and then centrifuged at 180 g for 5 minutes.
After centrifugation, a supernatant solution was discarded and all collected tissues were put into a stop solution. Aggregated tissues were disentangled by using a pipette and then centrifuged again at 180 g for 5 minutes. Separated cells were mixed with 10% FBS-MEM at a density of 1×10^6 cells/mL. 100 ul of cells were inoculated in each well of a 96-well plate and then cultured for 24 hours.
Thereafter, the culture medium was removed from the well plate for stabilization, a new culture medium and 5 uM Ara-c (cytosine arabinoside, sigma, C1768) were added thereto, cultured for 48 hours, the culture medium was removed again after 48 hours, a new culture medium was added thereto, and then cultured in an incubator having conditions of […], 5% CO2, and a temperature of 37° C. for the next experiment. Thereafter, the culture medium was removed for stabilization after another 48 hours, then a new culture medium was added thereto, and then cultured in an incubator under conditions of […], 5% CO2, and a temperature of 37° C. for the next experiment.
Cells were seeded in a 96-well plate at a density of 2×10^4 cells/well and 200 ul for each well. In this regard, cell confluence was set to be about 70% to about 80%. After 24 hours, when the cells have stabilized, a 26 gauge or 28 gauge needle was used to remove a preexisting medium from the wells. 200 ul of PBS free of serum and nutrients was added to each well, the wells were divided into EPO treatment groups and MKX-2 treatment groups, which were further divided into experimental groups according to concentrations of 0 nM, 0.1 nM, 1 nM, 10 nM, 100 nM, and 1000 nM and then treated with a drug for 72 hours under hypoxic conditions, and surviving […] neurocytes were quantitatively analyzed in an […]. The EPO used was an Eporon injection (Dong-A Pharmaceuticals, Korea). All experimental groups for each concentration included 7 wells. After a certain treatment time, 3-[4,5-dimethylthiazol-2-yl]-2,5-diphenyl tetrazolium bromide (MTT, Sigma, M2128) that was dissolved in a phosphate buffered saline (PBS) and then sterilization filtered by using a membrane filter having a thickness of 0.22 um was added to each well in an amount of 100 ul at a concentration of 1 mg/ml. In this regard, an MIT reagent was used after wrapping the MTT reagent with a foil sheet to block it from light. […]
Thereafter, an ELISA reader was used to measure an O.D. value at 570 nm for quantitatively analysis. […]

EPO: erythropoietin; the EPO used was an Eporon injection (Dong-A Pharmaceuticals, Korea)
cell survival rate (neurocytes; EPO 1 IU/ml, serum removed, no 2-mercaptoethanol, 72 hours, normal culture = 100%): 41.64% | cell survival rate (neurocytes; EPO 1 U/ml, after exposure to 0.1% 2-mercaptoethanol for 18 hours): 6.98% | cell survival rate (neurocytes; EPO 10 IU/ml, serum removed, no 2-mercaptoethanol, 72 hours, normal culture = 100%): 48.57% | cell survival rate (neurocytes; EPO 10 U/ml, after exposure to 0.1% 2-mercaptoethanol for 18 hours): 11.70% | increase of cell survival rate compared to 0 nM (retinal neurocytes; 0.1 nM and 1 nM): without any statistical significance | cell survival rate (retinal neurocytes; 10 nM): 128.03% | cell survival rate (retinal neurocytes; 100 nM): 127.6% | cell survival rate (retinal neurocytes; 1000 nM): 124.77%

From patent US20140378378A1, “ERYTHROPOIETIN-DERIVED PEPTIDE AND USE THEREFOR” (priority 2011, published 2014)
